Laboratory results: patent publication US8703158B2, “Theobromine for the treatment of cough” (Biocopea Limited, priority 2009, dated 2014)

Experiments:
[1] = system: citric acid-induced cough responses; test: citric acid-induced cough in guinea pigs (antitussive activity); type: in vivo, guinea pig; details: for mean number of citric acid-induced coughs / onset time to the first cough: 0.5 h pretreatment; for mean number of citric acid-induced coughs: vehicle 26±4
Method: The aim of this Example is to provide an assessment of the antitussive activity of intra-tracheally (i.t.) or orally dosed (p.o.) administered theobromine (3-30 mg/kg) compared to the positive control codeine (25 mg/kg, i.p.) against irritant-induced cough responses.
Thirty-six guinea pigs were randomly allocated to one of the six treatment groups (see Table 1) according to the blinding code.

[2] = observations of behaviour and health of dosed animals; details: codeine 25 mg/kg i.p.; reduction in movement in exposure chamber
Method: Guinea pigs were dosed intra-tracheally with theobromine or vehicle, orally with theobromine and intra-peronteneally with codeine. All pre-treatments were administered at t−30 min prior to citric acid exposure.

| Structure (SMILES) | inhaled dose giving equivalent anti-tussive effect, as fraction of the oral dose ([1]; citric acid-induced cough model, inhaled (i.t.) versus oral) | mean number of citric acid-induced coughs ([1]; theobromine 10 mg/kg i.t.) [coughs] | onset time to the first cough ([1]; theobromine 30 mg/kg p.o., versus vehicle control (71±26 s)) | effect on the total number of coughs ([1]; theobromine 3-30 mg/kg i.t., local administration) | behaviour of the animals (sedation) [2] | mean number of citric acid-induced coughs ([1]; codeine 25 mg/kg i.p., citric acid 1 M, 10 min exposure + 5 min recovery) [coughs] | onset time to the first cough ([1]; codeine 25 mg/kg i.p., vehicle 71±26 s) [s] |
| --- | --- | --- | --- | --- | --- | --- | --- |
| Cn1cnc2c1c(=O)[nH]c(=O)n2C [theobromine] | ⅓ | 10.33±2 | not significantly increased | significant dose-dependant effect |  |  |  |
| COc1ccc2c3c1O[C@H]1[C@@H](O)C=C[C@H]4[C@@H](C2)N(C)CC[C@@]341 [codeine] |  |  |  |  | slight sedation | 5±1 | 337 ± 51 |
